Consider 38 compounds from patent publication US10301299B2, “Glycosidase inhibitors” (Merck Patent GmbH, priority 2013, dated 2019).

pEC50, pIC50: −log10 of the molar value.

The first test deals with T1, His-Tagged hOGA (Homo sapiens, UniProt O60502).
T1 sequence (O60502 1-916): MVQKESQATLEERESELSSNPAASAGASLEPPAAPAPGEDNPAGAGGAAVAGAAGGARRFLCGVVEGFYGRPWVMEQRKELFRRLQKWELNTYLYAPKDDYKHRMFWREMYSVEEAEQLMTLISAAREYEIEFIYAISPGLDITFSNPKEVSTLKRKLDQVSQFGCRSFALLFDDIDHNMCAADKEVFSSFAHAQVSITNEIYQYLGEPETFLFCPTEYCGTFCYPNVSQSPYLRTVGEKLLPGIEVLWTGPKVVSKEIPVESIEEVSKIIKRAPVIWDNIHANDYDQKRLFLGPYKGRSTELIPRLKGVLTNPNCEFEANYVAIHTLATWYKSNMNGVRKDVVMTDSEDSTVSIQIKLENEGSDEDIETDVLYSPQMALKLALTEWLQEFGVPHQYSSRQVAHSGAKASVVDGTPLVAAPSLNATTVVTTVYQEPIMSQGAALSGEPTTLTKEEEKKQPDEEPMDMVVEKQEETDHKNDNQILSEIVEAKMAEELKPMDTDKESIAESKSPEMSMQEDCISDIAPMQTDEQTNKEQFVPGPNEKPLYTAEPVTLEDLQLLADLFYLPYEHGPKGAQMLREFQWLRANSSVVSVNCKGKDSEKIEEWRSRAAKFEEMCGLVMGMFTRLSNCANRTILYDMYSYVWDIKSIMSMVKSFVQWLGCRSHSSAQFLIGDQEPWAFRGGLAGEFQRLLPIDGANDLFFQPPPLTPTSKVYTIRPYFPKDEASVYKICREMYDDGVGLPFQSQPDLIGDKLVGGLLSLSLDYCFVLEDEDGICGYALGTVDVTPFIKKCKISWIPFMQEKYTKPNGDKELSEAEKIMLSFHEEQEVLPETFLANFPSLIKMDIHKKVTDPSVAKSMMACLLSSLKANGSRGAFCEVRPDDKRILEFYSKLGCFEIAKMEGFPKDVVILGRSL
The experiment in a line: Human O-GlcNAcase enzyme inhibition assay. The format is biochemical.
Details: not given
As to the method:
The following reaction components were added to a final volume of 10 μL in Mcllvaine's Buffer (pH 6.5): 20 nM His-Tagged hOGA and 10 μM Fluorescein mono-beta-D-(2-deoxy-2-N-acetyl) glucopyranoside (FL-GlcNAc; Marker Gene Technologies Inc, Part # M1485). […] The amount of fluorescence measured was plotted against the concentration of inhibitor to produce a sigmoidal dose response curve, from which an IC50 was calculated.
A word on the pIC50: it is the IC50 on a negative log10 scale, so that one unit is a factor of ten. Regarding `COc1ccc(CC2CCN(Cc3cnc(NC(C)=O)s3)CC2)cc1` [Compound 55, N-(5-((4-(4-METHOXYBENZYL)PIPERIDIN-1-YL)METHYL)THIAZOL-2-YL)ACETAMIDE], the pIC50 is > 6.70. Turning to `CC(=O)Nc1ncc(CN2CCC(Cc3ccc(C)cc3)CC2)s1` [Compound 54, N-(5-((4-(4-METHYLBENZYL)PIPERIDIN-1-YL)METHYL)THIAZOL-2-YL)ACETAMIDE], the negative logarithm of the IC50 (pIC50) is > 6.70.

On to `CC(=O)Nc1ncc(CN2CCC(Cc3ccccc3)CC2C)s1` (centres unmarked) [Compound 51, N-(5-((4-BENZYL-2-METHYLPIPERIDIN-1-YL)METHYL)THIAZOL-2-YL)ACETAMIDE], for which the pIC50 was > 6.70. The same measure, in the same setting: the same measure for `CC(=O)Nc1ncc(CN2CCC(C#N)(c3ccccc3)CC2)s1` [Compound 23, N-[5-(4-cyano-4-phenyl-piperidin-1-ylmethyl)-thiazol-2-yl]-acetamide]: < 5.00.

Still in this test, the particulars now being: 20 nM His-Tagged hOGA, 10 μM FL-GlcNAc, pH 6.5, 60 min; read-out: hOGA enzyme inhibition (IC50).
Consider `CC(=O)Nc1ncc(C(C)N2CCC(c3ccccc3)CC2)s1` (centres unmarked) [Compound 40, N-(5-(1-(4-phenylpiperidin-1-yl)ethyl)thiazol-2-yl)acetamide], for which the pIC50 is 6.00 to 6.70. Same read-out and setting: the value for `CC(=O)Nc1ncc(CN2CCC(Cc3ccc4ccccc4c3)CC2)s1` [Compound 56] was > 6.70; that for `CC(=O)Nc1ncc(CN2CCC(c3ccc(C(=O)O)cc3)CC2)s1` [Compound 45, 4-(1-((2-acetamidothiazol-5-yl)methyl)piperidin-4-yl)benzoic acid] was 6.00 to 6.70; that for `CC(=O)Nc1ncc(CN2CCC(c3cccc(C)c3)CC2)s1` [Compound 31, N-(5-((4-(m-tolyl)piperidin-1-yl)methyl)thiazol-2-yl)acetamide] was > 6.70. As for `CCNc1ncc(CN2CCC(c3ccccc3)CC2)s1` [Compound 5, N-ethyl-5-((4-phenylpiperidin-1-yl)methyl)thiazol-2-amine], the pIC50 was < 5.00. Same read-out and setting: the value for `CC(=O)Nc1ncc(CN2CCC(Cc3cccc(F)c3)CC2)s1` [Compound 50, N-(5-((4-(3-FLUOROBENZYL)PIPERIDIN-1-YL)METHYL)THIAZOL-2-YL)ACETAMIDE] was > 6.70.

In the case of `CC(=O)Nc1ncc(CN2CCC(c3ccccc3)CC2)o1` [Compound 13], the negative-log IC50 (pIC50) was 5.00 to 6.00. Consider `CC(=O)Nc1ncc(CN2CCC(Cc3ccc(F)cc3)CC2)s1` [Compound 48, N-(5-((4-(4-FLUOROBENZYL)PIPERIDIN-1-YL)METHYL)THIAZOL-2-YL)ACETAMIDE], for which the pIC50 was > 6.70. Turning to `CCC(=O)Cc1ncc(CN2CCC(c3ccccc3)CC2)s1` [Compound 18], the pIC50 was < 5.00. Take `CC(=O)N(C)c1ncc(CN2CCC(c3ccccc3)CC2)s1` [Compound 9, N-methyl-N-(5-((4-phenylpiperidin-1-yl)methyl)thiazol-2-yl)acetamide]: the pIC50 was 5.00 to 6.00. As to `CC(=O)Nc1ncc(CN2CCC(N(C)C)CC2)s1` [Compound 34, N-(5-((4-(dimethylamino)piperidin-1-yl)methyl)thiazol-2-yl)acetamide], the pIC50 was < 5.00.

Regarding `CC(=O)Cc1ncc(CN2CCC(c3ccccc3)CC2)s1` [Compound 17], the pIC50 was < 5.00. The same measure, in the same setting: the value for `CC(=O)Nc1ncc(CN2CCC(Cc3ccc(C(F)(F)F)cc3)CC2)s1` [Compound 49, N-(5-((4-(4-(TRIFLUOROMETHYL)BENZYL)PIPERIDIN-1-YL)METHYL)THIAZOL-2-YL)ACETAMIDE] was > 6.70. The same measure, in the same setting: the same measure for `CC(=O)Nc1ncc(CN2CCN(C(C)c3ccc4c(c3)OCO4)CC2)s1` (centres unmarked) [Compound 58, N-(5-((4-(1-(BENZO[D][1,3]DIOXOL-5-YL)ETHYL)PIPERAZIN-1-YL)METHYL)THIAZOL-2-YL)ACETAMIDE]: 5.00 to 6.00; for `CC(=O)Nc1ncc(CN2CCC(C)CC2)s1` [Compound 15, N-[5-(4-methyl-piperidin-1-ylmethyl)-thiazol-2-yl]-acetamide]: 5.00 to 6.00. Regarding `CC(c1ccc2c(c1)OCO2)N1CCN(Cc2cnc(N3CCNC(=O)C3)s2)CC1` (centres unmarked) [Compound 59, 4-(5-((4-(1-(BENZO[D][1,3]DIOXOL-5-YL)ETHYL)PIPERAZIN-1-YL)METHYL)THIAZOL-2-YL)PIPERAZIN-2-ONE], the pIC50 was 5.00 to 6.00. Still for that read-out and setting: the value for `CC(=O)Nc1ncc(CN2CCC(CCc3ccccc3)CC2)s1` [Compound 62] was > 6.70; that for `CC(=O)Nc1ncc(CN2CCC(c3ccccc3C(=O)O)CC2)s1` [Compound 44, 2-(1-((2-acetamidothiazol-5-yl)methyl)piperidin-4-yl)benzoic acid] was < 5.00. Still for that read-out and setting: the same measure for `CC(=O)Nc1ncc(CN2CCC(Cc3ccc4c(c3)OCO4)CC2)s1` [Compound 47]: > 6.70; for `CC(=O)Nc1ncc(CN2CCC(Oc3ccccc3)CC2)s1` [Compound 61, N-(5-((4-PHENOXYPIPERIDIN-1-YL)METHYL)THIAZOL-2-YL)ACETAMIDE]: 6.00 to 6.70. Same read-out and setting: the same measure for `CCCNc1ncc(CN2CCC(c3ccccc3)CC2)s1` [Compound 6, 5-((4-phenylpiperidin-1-yl)methyl)-N-propylthiazol-2-amine]: < 5.00; for `CC(=O)Nc1ncc(CN2CCC(Cc3ccc(Cl)cc3)CC2)s1` [Compound 46, N-(5-((4-(4-chlorobenzyl)piperidin-1-yl)methyl)thiazol-2-yl)acetamide]: > 6.70.

For the compound `CCc1ncc(CN2CCC(c3ccccc3)CC2)s1` [Compound 8, 2-ethyl-5-((4-phenylpiperidin-1-yl)methyl)thiazole], the negative-log IC50 (pIC50) was < 5.00. Consider `CC(=O)Nc1ncc(CN2CCC(Cc3ccccc3)C(F)C2)s1` (single isomer, unassigned) [Compound 52, N-(5-((-4-BENZYL-3-FLUOROPIPERIDIN-1-YL)METHYL)THIAZOL-2-YL)ACETAMIDE], for which the pIC50 was > 6.70. Regarding `CC(=O)Nc1ncc(CN2CCC(Cc3cc(F)cc(F)c3)CC2)s1` [Compound 64, N-(5-((4-(3,5-DIFLUOROBENZYL)PIPERIDIN-1-YL)METHYL)THIAZOL-2-YL)ACETAMIDE], the pIC50 is > 6.70. On to `CC(=O)Nc1ncc(CN2CCC(O)(c3ccccc3)CC2)s1` [Compound 24, N-[5-(4-hydroxy-4-phenyl-piperidin-1-ylmethyl)-thiazol-2-yl]-acetamide], for which the pIC50 was 5.00 to 6.00. On the same count and under the same terms, the value for `CCC(=O)Nc1ncc(CN2CCC(c3ccccc3)CC2)s1` [Compound 3, N-(5-((4-phenylpiperidin-1-yl)methyl)thiazol-2-yl)propionamide] was 6.00 to 6.70; that for `CS(=O)(=O)Nc1ncc(CN2CCC(c3ccccc3)CC2)s1` [Compound 11, N-[5-(4-phenyl-piperidin-1-ylmethyl)-thiazol-2-yl]-methanesulfonamide] was < 5.00. Take `C=CC(=O)Nc1ncc(CN2CCC(c3ccccc3)CC2)s1` [Compound 4, N-[5-(4-phenyl-piperidin-1-ylmethyl)-thiazol-2-yl]-acrylamide]: the pIC50 is 5.00 to 6.00. As for `c1ccc(C2CCN(Cc3cnc(NC4CC4)s3)CC2)cc1` [Compound 12, N-cyclopropyl-5-((4-phenylpiperidin-1-yl)methyl)thiazol-2-amine], the pIC50 is < 5.00. Still for that read-out and setting: the value for `CC(=O)Nc1ncc(CN2CCC(Cc3ccc4nccnc4c3)CC2)s1` [Compound 63] was > 6.70; that for `CNC(=O)Nc1ncc(CN2CCC(c3ccccc3)CC2)s1` [Compound 10, 1-methyl-3-(5-((4-phenylpiperidin-1-yl)methyl)thiazol-2-yl)urea] was 5.00 to 6.00. With `Cc1ncc(CN2CCC(c3ccccc3)CC2)s1` [Compound 7, 2-methyl-5-((4-phenylpiperidin-1-yl)methyl)thiazole], the pIC50 was < 5.00. For the compound `CC(=O)Nc1ncc(CN2CCC(Cc3ccccc3)C(C)C2)s1` (centres unmarked) [Compound 53, N-(5-((4-BENZYL-3-METHYLPIPERIDIN-1-YL)METHYL)THIAZOL-2-YL)ACETAMIDE], the pIC50 was > 6.70.

For the next test, the system named is B35 rat neuroblastoma cells. The experiment in a line: Cellular O-GlcNAcylation assay (tau O-GlcNAc S400, ICC). The test is classed as cell-based. The note with it: Neuroblastoma cell, 16 h, tau O-GlcNAcylated at serine 400. Here is the method:
The following day cells were treated with appropriate concentration of a solution of inhibitor for 16 h at 37° C. in 5% CO2. Cells were fixed in 100 μl 4% paraformaldehyde for 15 min at room temperature, followed by three washes in PBS buffer. The cells were then permeabilized with 0.1% Triton X-100 for 60 min at room temperature. After three washes in PBS the cells were blocked with 10% goat serum containing 1% BSA in PBS buffer for two hours at room temperature. The cells were then incubated with a monoclonal rabbit antibody specific for tau O-GlcNAcylated at serine 400 (Epitomics) at a 1:1000 dilution overnight at 4° C. […] To calculate an EC50 the total peak intensity was plotted against the concentration of inhibitor to produce a sigmoidal dose response curve.
As a reminder, the pEC50 is −log10 of the EC50, conventionally taken in molar units. In turn, `CC(=O)Nc1ncc(C(C)N2CCC(c3ccccc3)CC2)s1` (centres unmarked) [Compound 40, N-(5-(1-(4-phenylpiperidin-1-yl)ethyl)thiazol-2-yl)acetamide] had a pEC50 of 6.00 to 6.70. For the compound `CC(=O)Nc1ncc(CN2CCC(c3ccc(C(=O)O)cc3)CC2)s1` [Compound 45, 4-(1-((2-acetamidothiazol-5-yl)methyl)piperidin-4-yl)benzoic acid], the pEC50 was 5.00 to 6.00. Regarding `CC(=O)Nc1ncc(CN2CCC(c3cccc(C)c3)CC2)s1` [Compound 31, N-(5-((4-(m-tolyl)piperidin-1-yl)methyl)thiazol-2-yl)acetamide], the pEC50 is > 6.70.
